Where only a bound is given, the exact number is not on record here.

This assay concerns HCT116 MTAP-deleted cell lines. In words: Cell viability assay (CellTiter-Glo, 7 days), HCT116 MTAP-deleted. The format is cell-based. Conditions: Homo sapiens, HCT-116; cell viability assay, HCT116 MTAP-deleted; class symbols; read-out: CC50. In a few lines:
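Dose-response, PRMT5 inhibitors from DMSO serial dilution, pre-spotted; cells seeded onto compound plates. 7 d, 37 °C/5% CO2/90% RH. Readout: CTG luminescence → CC50.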
For orientation: In ATP-based viability assays light output follows the ATP content of the culture.
Broadly, the CC50 is the concentration that lowers cell viability or growth by half. As to `CN(C(=O)c1cc2c(cc1F)nc(N)c1cncn12)[C@@H]1COc2cc(C#CC(C)(C)O)ccc21` [Ff-442, 4-amino-7-fluoro-N-[(3S)-6-(3-hydroxy-3-methyl-but-1-ynyl)-2,3-dihydrobenzofuran-3-yl]-N-methyl-imidazo[1,5-a]quinoxaline-8-carboxamide], the CC50 was < 100 nM.
On to `CN(C(=O)c1cc2c(cc1Cl)nc(N)c1cncn12)[C@@H]1COc2cc([C@@H]3C[C@H]3C#N)c(F)cc21` [Ff-443, Trans-4-amino-7-chloro-N-[(3S)-6-(2-cyanocyclopropyl)-5-fluoro-2,3-dihydrobenzofuran-3-yl]-N-methyl-imidazo[1,5-a]quinoxaline-8-carboxamide], for which the CC50 was < 100 nM.
As to `CN(C(=O)c1cc2c(cc1F)nc(N)c1cncn12)[C@@H]1COc2cc(C34CC(C3)C4)ccc21` [Ff-444, 4-amino-N-[(3S)-6-(1-bicyclo[1.1.1]pentanyl)-2,3-dihydrobenzofuran-3-yl]-7-fluoro-N-methyl-imidazo[1,5-a]quinoxaline-8-carboxamide], the CC50 is < 100 nM.
Then `CN(C(=O)c1cc2c(cc1F)nc(N)c1cncn12)[C@@H]1COc2cc(C#CC3(C#N)CC3)ccc21` [Ff-445, 4-amino-N-[(3S)-6-[2-(1-cyanocyclopropyl)ethynyl]-2,3-dihydrobenzofuran-3-yl]-7-fluoro-N-methyl-imidazo[1,5-a]quinoxaline-8-carboxamide], with < 100 nM; and `CN(C(=O)c1cc2c(cc1F)nc(N)c1cncn12)[C@@H]1COc2cc(C#CC3(F)CCOC3)ccc21` (stereo partly drawn) [Ff-446, 4-amino-7-fluoro-N-[(3S)-6-[2-(3-fluorotetrahydrofuran-3-yl)ethynyl]-2,3-dihydrobenzofuran-3-yl]-N-methyl-imidazo[1,5-a]quinoxaline-8-carboxamide], with < 100 nM; and `CN(C(=O)c1cc2c(cc1F)nc(N)c1cncn12)[C@@H]1COc2cc(C#CC(C)(C)F)ccc21` [Ff-447, 4-amino-7-fluoro-N-[(3S)-6-(3-fluoro-3-methyl-but-1-ynyl)-2,3-dihydrobenzofuran-3-yl]-N-methyl-imidazo[1,5-a]quinoxaline-8-carboxamide], with < 100 nM.
The figure for `N#C[C@@H]1C[C@H]1c1ccc2c(c1)C[C@H]1OCCN(C(=O)c3cc4c(cc3F)nc(N)c3cncn34)[C@@H]21` [Ff-448, Trans-2-[(4aS,9aR)-4-(4-amino-7-fluoro-imidazo[1,5-a]quinoxaline-8-carbonyl)-3,4a,9,9a-tetrahydro-2H-indeno[2,1-b][1,4]oxazin-7-yl]cyclopropanecarbonitrile] is < 100 nM.
Then `CN(C(=O)c1cc2c(cn1)nc(N)c1cncn12)[C@@H]1COc2cc(C34CC(C3)C4)ccc21` [Ff-449, 7-amino-N-[(3S)-6-(1-bicyclo[1.1.1]pentanyl)-2,3-dihydrobenzofuran-3-yl]-N-methyl-2,4,8,11-tetrazatricyclo[7.4.0.02,6]trideca-1(9),3,5,7,10,12-hexaene-12-carboxamide], with < 100 nM; and `Cc1ncn2c1c(N)nc1cc(F)c(C(=O)N(C)[C@@H]3COc4cc([C@@H]5C[C@H]5C#N)c(F)cc43)cc12` [Ff-450, Trans-4-amino-N-[(3S)-6-(2-cyanocyclopropyl)-5-fluoro-2,3-dihydrobenzofuran-3-yl]-7-fluoro-N,3-dimethyl-imidazo[1,5-a]quinoxaline-8-carboxamide], with < 100 nM; and `CN(C(=O)c1cc2c(cn1)nc(N)c1cncn12)[C@@H]1COc2cc(C34CC(C(F)F)(C3)C4)ccc21` [Ff-451, (S)-4-amino-N-(6-(3-(difluoromethyl)bicyclo[1.1.1]pentan-1-yl)-2,3-dihydrobenzofuran-3-yl)-N-methylimidazo[1,5-a]pyrido[3,4-e]pyrazine-8-carboxamide], with < 100 nM.
In the case of `Cc1ncn2c1c(N)nc1cnc(C(=O)N(C)[C@@H]3COc4cc(C56CC(C5)C6)ccc43)cc12` [Ff-452, (S)-4-amino-N-(6-(bicyclo[1.1.1]pentan-1-yl)-2,3-dihydrobenzofuran-3-yl)-N,3-dimethylimidazo[1,5-a]pyrido[3,4-e]pyrazine-8-carboxamide], the CC50 was < 100 nM.
The figure for `CN(C(=O)c1cc2c(cc1F)nc(N)c1cncn12)[C@@H]1COc2cc(C34CC(F)(C3)C4)ccc21` [Ff-453, 4-amino-7-fluoro-N-[(3S)-6-(3-fluoro-1-bicyclo[1.1.1]pentanyl)-2,3-dihydrobenzofuran-3-yl]-N-methyl-imidazo[1,5-a]quinoxaline-8-carboxamide] is < 100 nM; for `CN(Cc1ccn(-c2ccccc2)n1)C(=O)c1cc2c(cc1F)nc(N)c1cncn12` [Ff-454, 4-amino-7-fluoro-N-methyl-N-((1-phenyl-1H-pyrazol-3-yl)methyl)imidazo[1,5-a]quinoxaline-8-carboxamide] it is 100 to 1000 nM.
The figure for `CN(C(=O)c1cc2c(cc1F)nc(N)c1cncn12)[C@@H]1COc2c(Br)cccc21` [Ff-455, (S)-4-amino-N-(7-bromo-2,3-dihydrobenzofuran-3-yl)-7-fluoro-N-methylimidazo[1,5-a]quinoxaline-8-carboxamide] is 100 to 1000 nM; for `CN(C(=O)c1cc2c(cc1F)nc(N)c1cncn12)C1CSc2ccccc21` (centres unmarked) [Ff-456, 4-amino-N-(2,3-dihydrobenzo[b]thiophen-3-yl)-7-fluoro-N-methylimidazo[1,5-a]quinoxaline-8-carboxamide] it is 100 to 1000 nM; for `CN(C(=O)c1cc2c(cc1F)nc(N)c1cncn12)[C@@H]1COc2ccc(Br)cc21` [Ff-457, (S)-4-amino-N-(5-bromo-2,3-dihydrobenzofuran-3-yl)-7-fluoro-N-methylimidazo[1,5-a]quinoxaline-8-carboxamide] it is < 100 nM.
As to `CN(C(=O)c1cc2c(cc1F)nc(N)c1cncn12)C1COc2ccc(C(F)(F)F)cc21` (centres unmarked) [Ff-458, 4-amino-7-fluoro-N-methyl-N-(5-(trifluoromethyl)-2,3-dihydrobenzofuran-3-yl)imidazo[1,5-a]quinoxaline-8-carboxamide], the CC50 is < 100 nM.
Then `CN(C(=O)c1cc2c(cc1F)nc(N)c1cncn12)C1COc2cc3c(cc21)CCC3` (centres unmarked) [Ff-459, 4-amino-7-fluoro-N-methyl-N-(3,5,6,7-tetrahydro-2H-indeno[5,6-b]furan-3-yl)imidazo[1,5-a]quinoxaline-8-carboxamide], with < 100 nM; and `Cc1cc2c(cc1Br)[C@H](N(C)C(=O)c1cc3c(cc1F)nc(N)c1cncn13)CO2` [Ff-460, (S)-4-amino-N-(5-bromo-6-methyl-2,3-dihydrobenzofuran-3-yl)-7-fluoro-N-methylimidazo[1,5-a]quinoxaline-8-carboxamide], with < 100 nM; and `Nc1nc2cc(F)c(C(=O)N3CCO[C@@H]4Cc5cc(Cl)ccc5[C@@H]43)cc2n2cncc12` [Ff-461, (4-amino-7-fluoroimidazo[1,5-a]quinoxalin-8-yl)((4aS,9aR)-7-chloro-2,3,9,9a-tetrahydroindeno[2,1-b][1,4]oxazin-4(4aH)-yl)methanone], with < 100 nM.
The figure for `CN(C(=O)c1cc2c(cc1F)nc(N)c1cncn12)[C@@H]1COc2cc(C3CC(C#N)C3)ccc21` (stereo partly drawn) [Ff-465, (S)-4-amino-N-(6-(3-cyanocyclobutyl)-2,3-dihydrobenzofuran-3-yl)-7-fluoro-N-methylimidazo[1,5-a]quinoxaline-8-carboxamide] is < 100 nM; for `Cc1ncc2c(N)nc3cnc(C(=O)N(C)[C@@H]4COc5cc(C67CC(C6)C7)ccc54)cc3n12` [Ff-466, (S)-4-amino-N-(6-(bicyclo[1.1.1]pentan-1-yl)-2,3-dihydrobenzofuran-3-yl)-N,1-dimethylimidazo[1,5-a]pyrido[3,4-e]pyrazine-8-carboxamide] it is < 100 nM; for `CC1(N(Cc2ccc(C(F)(F)F)cn2)C(=O)c2cc3c(cc2F)nc(N)c2cncn23)CC1` [Ff-468, 4-amino-7-fluoro-N-(1-methylcyclopropyl)-N-((5-(trifluoromethyl)pyridin-2-yl)methyl)imidazo[1,5-a]quinoxaline-8-carboxamide] it is < 100 nM.
The figure for `CN(C(=O)c1cc2c(cc1F)nc(N)c1cncn12)[C@@H]1COc2cc(-c3cnn(-c4ccccc4)c3)ccc21` [Ff-472, (S)-4-amino-7-fluoro-N-methyl-N-(6-(1-phenyl-1H-pyrazol-4-yl)-2,3-dihydrobenzofuran-3-yl)imidazo[1,5-a]quinoxaline-8-carboxamide] is < 100 nM.
Consider `CN(C(=O)c1cc2c(cc1F)nc(N)c1cncn12)[C@@H]1COc2cc(C3CC3(C)C)ccc21` (stereo partly drawn) [Ff-475, 4-amino-N-((3S)-6-(2,2-dimethylcyclopropyl)-2,3-dihydrobenzofuran-3-yl)-7-fluoro-N-methylimidazo[1,5-a]quinoxaline-8-carboxamide], for which the CC50 was < 100 nM.
The figure for `CN(C(=O)c1cc2c(cc1F)nc(N)c1cncn12)[C@@H]1COc2cc(C3CC34CCC4)ccc21` (stereo partly drawn) [Ff-476, 4-amino-7-fluoro-N-methyl-N-((3S)-6-(spiro[2.3]hexan-1-yl)-2,3-dihydrobenzofuran-3-yl)imidazo[1,5-a]quinoxaline-8-carboxamide] is 100 to 1000 nM.
For `CN(C(=O)c1cc2c(cc1F)nc(N)c1cncn12)[C@@H]1COc2cc([C@@H]3C[C@H]3c3ccn(C(F)F)n3)ccc21` [Ff-477, 4-amino-N—((S)-6-((1R,2R)-2-(1-(difluoromethyl)-1H-pyrazol-3-yl)cyclopropyl)-2,3-dihydrobenzofuran-3-yl)-7-fluoro-N-methylimidazo[1,5-a]quinoxaline-8-carboxamide], the CC50 was < 100 nM.
Take `C=C(C)c1ccc2c(c1)OC[C@H]2N(C)C(=O)c1cc2c(cc1F)nc(N)c1cncn12` [Ff-478, (S)-4-amino-7-fluoro-N-methyl-N-(6-(prop-1-en-2-yl)-2,3-dihydrobenzofuran-3-yl)imidazo[1,5-a]quinoxaline-8-carboxamide]: the CC50 was < 100 nM.
The figure for `CC(C)c1ccc2c(c1)OC[C@H]2N(C)C(=O)c1cc2c(cc1F)nc(N)c1cncn12` [Ff-479, (S)-4-amino-7-fluoro-N-(6-isopropyl-2,3-dihydrobenzofuran-3-yl)-N-methylimidazo[1,5-a]quinoxaline-8-carboxamide] is < 100 nM.

The values are drawn from patent US12448388B2, “PRMT5 inhibitors and uses thereof” (Gilead Sciences, Inc., priority 2023, dated 2025).
